Consider 27 compounds from patent US9359338B2, “Cyclopropanecarboxamido-substitute aromatic compounds as anti-tumor agents” (Crown Bioscience Inc. (Taiwan), priority 2012, dated 2016).

For one assay, the target named is KDR kinase (790-1356 AA) (Homo sapiens (Human), UniProt P35968). Put plainly: Inhibitory activity at KDR kinase (Lance Ultra Ulight-TK assay). In kind it is biochemical. The procedure:
Inhibitory Activity of Compounds at KDR Kinase
• [Experimental method]: Use Lance@Ultra Ulight™-TK assay kit from PerKinElmer to evaluate the inhibitory activity of compounds at KDR kinase. • [Instrument]: PerKinElmer's ENVISION plate reader • [Materials]: Optiplate-384 well plate (PerKinElmer), kinase buffer (50 mM Hepes pH7.5, 0.25 mM EGTA, 2 mM DTT, 0.01% Tween 20, 10 mM Mg^2+, 0.5 mM Mn^2+), KDR kinase (790-1356 AA, Crown Bioscience), KDR kinase substrate (PerKinElmer catalogue # TRF0127-M), Lance@Eu-W1024-anti-phosphotyrosine (PT66) (PerKinElmer, catalogue #AD0068), ATP (Invitrogen), DMSO (Sigma, catalogue #34869), purified water (Millipore, type: Milli-Q). • [Study conditions]: Mix KDR (final concentration: 20 nM) and compound (final DMSO: 0.5%), pre-incubate for 20 min at 30° C.; then add ATP (final concentration: 90 μM) and the substrate (final concentration […]). React for 2 hrs at 30° C. After the reaction, add antibody and reaction for 60 min at 30° C. Read the plate (615 nm, 665 nm), calculate the ratio of the value at 665 nm vs 615 nm and analyze the data. • [Samples]: Compounds in the examples and Sorafenib (positive control) • [Data Analysis]: Use CBIS data analysis software to calculate IC50 values

The next assay deals with pERK in MDA-MB-231 cells. Put plainly: Inhibitory activity at pERK (In Cell Western, MDA-MB-231 cells). The assay is classed as cell-based. Particulars: Homo sapiens. Here is the method:
Inhibitory Activity of Compounds at pERK
When the cells reach 80% confluency, collect cells by trypsinization and centrifugation at 800 rpm for 3 minutes. Resuspend cells with appropriate volume of medium and count cell numbers. Adjust cell concentration to 70000 cells/mL, and split 100 μL cell suspension per well into 96-well plates. Transfer the plates into cell culture incubator (37° C., 5% CO2) and incubate cells overnight. Discard the medium, wash with PBS once, Prepare compound serial dilutions in culture medium with total 8 compound concentrations at 3-fold serial dilutions (the final top concentration starts from 30 μM). Dispense 75 μL DMEM medium (with 0.1% BSA) and 25 μL of each test compound dilution into corresponding wells with DMSO at 0.3% final concentration. Continue incubating cells in cell culture incubator for additional 2 hrs at 37° C., 5% CO2. Discard culture medium, and wash cells once with PBS. Add 100 μL of 4% formaldehyde solution to each well and fix for 20 min. Discard the formaldehyde, then add 100 μL ice-cold 100% methanol at 4° C. for 20 min. Discard methanol, wash with PBS three times. Add to each well 100 μL of 2% BSA solution, seal for 30 min at room temperature. Discard the BSA solution, add to each well 50 μL of the 1st antibody solution (prepared with 2% BSA, 1:250 dilution), incubate at 4° C. overnight. Discard the 1^St antibody solution, wash with PBS four times. Add to each well […] the 2nd antibody solution (prepared with 1% BSA, 1:1000 dilution), incubate at room temperature for 1 hr. Discard the 2nd antibody solution, wash with PBS four times, add to each well 100 μL PI solution (1.5 μM), incubate at room temperature for 30 min. Use Acumen (TPP) to measure the fluorescence. • [Samples]: Compounds in the examples and sorafenib (positive control) • [Data Analysis]: Use CBIS data analysis software to calculate IC50 values

The subject of another assay is PLC-PRF-5 cells. The assay can be described thus: Inhibition of proliferation of PLC-PRF-5 cells (ATPlite). In kind it is cell-based. Particulars: Homo sapiens. The text has this: Inhibitory Activity of Compounds to the Proliferation of PLC-PRF-5 Cells
• [experimental Method]: Use PerKinElmer's ATPlite™ Luminescence ATP Detection Assay System to evaluate the inhibitory activity of compounds to the proliferation of PLC-PRF-5 cells. • [Instruments]: ENVISION plate reader (PerKinElmer) and centrifuge (Thermo Scientific, Sorvall ST16R) • [material]: PLC-PRF-5 cells (ATCC), 96-well plate (Nunc, #165305), DMEM medium (Gibco, #11965-092), PBS (Invitrogen, #10010023), fetal bovine serum (Gibco, #16000044), DMSO (Sigma, #D2650), ATPlite™ Luminescence ATP Detection Assay System (PerkinElmer, #6016949), purified water (Millipore, type: Milli-Q). • [Protocol]: Grow PLC-PRF-5 cells in DMEM supplemented with 10% FBS. When the cells reach 80% confluency, collect cells by trypsinization and centrifugation at 800 rpm for 3 min. Resuspend cells with appropriate volume of medium and count cell numbers. Adjust cell concentration to 50000 cells/mL, and split 160 μL cell suspension per well into 96-well plates. Transfer the plates into cell culture incubator (37° C., 5% CO2) and incubate cells for 2 hrs. Prepare compound serial dilutions in culture medium with total 8 compound concentrations at 3-fold serial dilutions (the final top concentration starts from 30 μM). Dispense 40 μL of each test compound dilution into corresponding wells with DMSO at 0.3% final concentration. Continue incubating cells in cell culture incubator for additional 96 hrs at 37° C., 5% CO2. Discard culture medium, and wash cells once with PBS. Add 50 μL cell lysis buffer per well and shake plates for 5 min at room temperature to ensure complete lysis of cells. Then add 50 μL of substrate solution and shake plates for 1 min at room temperature. Allow the plates to incubate at room temperature for 5 min, followed by recording the luminescence signals using Envision, and subsequent data analysis. • [Samples]: Compounds in the examples and Sorafenib (positive control) • [Data analysis]: Use CBIS data analysis software to calculate IC50 values
Background: ATP-based viability assays read luminescence as a measure of living cells.

The mark [1] stands for this setting: MDA-MB-231, MDA-MB-231 cells, read-out: MDA-MB-231 pERK IC50.
Setting [2] is: PLC-PRF-5, PLC-PRF-5 cells, read-out: PLC-PRF-5 cell proliferation IC50.

Where two headings read alike, the source gives them in different places.

KDR kinase (790-1356 AA), sequence (P35968 790-1356): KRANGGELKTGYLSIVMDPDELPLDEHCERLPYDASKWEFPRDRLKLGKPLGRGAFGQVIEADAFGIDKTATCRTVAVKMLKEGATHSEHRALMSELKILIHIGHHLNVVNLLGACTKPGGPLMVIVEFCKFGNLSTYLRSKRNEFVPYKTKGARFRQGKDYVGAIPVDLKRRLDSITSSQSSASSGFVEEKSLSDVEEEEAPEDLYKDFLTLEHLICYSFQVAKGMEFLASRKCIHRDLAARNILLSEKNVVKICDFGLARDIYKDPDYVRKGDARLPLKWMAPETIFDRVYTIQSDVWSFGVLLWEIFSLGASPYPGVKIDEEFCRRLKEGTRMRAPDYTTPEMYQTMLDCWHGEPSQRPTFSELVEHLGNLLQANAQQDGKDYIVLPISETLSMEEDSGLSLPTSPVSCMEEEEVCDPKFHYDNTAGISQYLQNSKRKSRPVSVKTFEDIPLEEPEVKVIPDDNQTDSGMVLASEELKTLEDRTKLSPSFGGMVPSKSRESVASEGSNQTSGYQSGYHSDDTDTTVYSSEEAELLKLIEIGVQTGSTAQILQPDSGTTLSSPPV

On to `Cc1ccc(Oc2cc(NC(=O)C3CC3)ncn2)cc1NC(=O)Nc1ccc(Cl)c(C(F)(F)F)c1` [Exe. 014], for which the IC50 against KDR kinase (790-1356 AA) amounted to 7 nM; in the assay with pERK in MDA-MB-231 cells (setting [1]), 48.5 nM; with PLC-PRF-5 cells (setting [2]), 8700 nM.
In the same order, the values of `CN(c1ccnc(NC(=O)C2CC2)c1)c1ccc(NC(=O)Nc2cccc(C(F)(F)F)c2)c(F)c1` [Exe. 203] are 16.2 nM, 61 nM and 539 nM.
As for `O=C(Nc1cccc(C2CC2)c1)Nc1ccc(Oc2ccnc(NC(=O)C3CC3)c2)c(F)c1` [Exe. 057], the figures for the IC50 at KDR kinase (790-1356 AA), in the assay with pERK in MDA-MB-231 cells (setting [1]) and in the assay on PLC-PRF-5 cells (setting [2]) were 12 nM, 85 nM and 250 nM, respectively.
With `Cc1cc(NC(=O)Nc2cc(F)cc(C(C)(F)F)c2)ccc1Oc1ccnc(NC(=O)C2CC2)c1` [Exe. 233], the IC50 on KDR kinase (790-1356 AA) stood at 8.1 nM; with pERK in MDA-MB-231 cells (setting [1]), 18.5 nM; with PLC-PRF-5 cells (setting [2]), 559 nM.
For the compound `Cc1cc(Oc2cc(NC(=O)C3CC3)ncn2)ccc1NC(=O)Nc1ccc(C#N)c(Cl)c1` [Exe. 086], the IC50 was found to be 8.3 nM against KDR kinase (790-1356 AA); 226 nM in the assay with pERK in MDA-MB-231 cells (MDA-MB-231, read-out: MDA-MB-231 pERK IC50); 19300 nM in the assay with PLC-PRF-5 cells (PLC-PRF-5, read-out: PLC-PRF-5 cell proliferation IC50).
Take `O=C(Nc1cc(NC(=O)[C@@H]2CCCN2)cc(C(F)(F)F)c1)Nc1ccc(Oc2ccnc(NC(=O)C3CC3)c2)c(F)c1` [Exe. 240]: the IC50 on KDR kinase (790-1356 AA) came out at 19.1 nM; with pERK in MDA-MB-231 cells (setting [1]), 27.2 nM; with PLC-PRF-5 cells (setting [2]) it was 1040 nM.
In the same order, the values of `CN1CCC(c2ccc(NC(=O)Nc3ccc(Oc4ccnc(NC(=O)C5CC5)c4)c(F)c3)cc2C(F)(F)F)CC1` [Exe. 036] are 15.6 nM, 290 nM and 2400 nM.
The matching figures for `CC(F)(F)c1cc(F)cc(NC(=O)Nc2ccc(Oc3ccnc(NC(=O)C4CC4)c3)c(F)c2)c1` [Exe. 179]: 10.5 nM, 51.5 nM and 206 nM.
In the same order, the values of `Cc1cc(Oc2cc(NC(=O)C3CC3)ncn2)ncc1NC(=O)Nc1ccc(Cl)c(C(F)(F)F)c1` [Exe. 016] are 9.4 nM, 55 nM and 20100 nM.
Consider `Cc1ccc(NC(=O)Nc2ccc(Oc3ccnc(NC(=O)C4CC4)c3)cc2)cc1C(F)(F)F` [Exe. 140], for which the figures for the IC50 at KDR kinase (790-1356 AA), in the assay with pERK in MDA-MB-231 cells (setting [1]) and in the assay on PLC-PRF-5 cells (setting [2]) were 10 nM, 10.6 nM and 230 nM, respectively.
The matching figures for `CC(F)(F)c1ccc(F)c(NC(=O)Nc2ccc(Oc3cc(NC(=O)C4CC4)ncn3)c(F)c2)c1` [Exe. 104]: 10.2 nM, 252 nM and 100 nM.
The matching figures for `O=C(Nc1ccc(Oc2cc(NC(=O)C3CC3)ncn2)nc1)Nc1ccc(Cl)c(C(F)(F)F)c1` [Exe. 015]: 4.2 nM, 94 nM and 6500 nM.
Consider `Cc1ccc(NC(=O)Nc2ccc(Oc3ccnc(NC(=O)C4CC4)c3)c(F)c2)cc1C(F)(F)F` [Exe. 154], for which the values for the IC50 on KDR kinase (790-1356 AA), in the assay with pERK in MDA-MB-231 cells (setting [1]) and in the assay on PLC-PRF-5 cells (setting [2]) were 11.3 nM, 14.9 nM and 130 nM, respectively.
Consider `O=C(Nc1cc(N2CCC(F)CC2)cc(C(F)(F)F)c1)Nc1ccc(Oc2ccnc(NC(=O)C3CC3)c2)c(F)c1` [Exe. 046], for which the IC50 was 16.6 nM on KDR kinase (790-1356 AA), 58.2 nM in the assay with pERK in MDA-MB-231 cells (setting [1]) and 640 nM in the assay on PLC-PRF-5 cells (setting [2]).
The matching figures for `CC(c1cc(NC(=O)Nc2ccc(Oc3ccnc(NC(=O)C4CC4)c3)c(F)c2)cc(C(F)(F)F)c1)N1CCN(C)CC1` (stereo not drawn) [Exe. 045]: 15.4 nM, 40 nM and 108 nM.
In the case of `CC(F)(F)c1cc(NC(=O)Nc2ccc(Oc3ccnc(NC(=O)C4CC4)c3)cc2)ccc1F` [Exe. 150], the IC50 against KDR kinase (790-1356 AA) came to 11.5 nM; in the assay with pERK in MDA-MB-231 cells (setting [1]) it was 20.4 nM; with PLC-PRF-5 cells (setting [2]), 737 nM.
The matching figures for `O=C(Nc1cc(F)cc(C(F)(F)F)c1)Nc1ccc(Oc2cc(NC(=O)C3CC3)ncn2)cc1Cl` [Exe. 090]: 12.2 nM, 42 nM and 2800 nM.
The matching figures for `Cc1ccc(Oc2ccnc(NC(=O)C3CC3)c2)cc1NC(=O)Nc1ccc(F)c(C(F)(F)F)c1` [Exe. 223]: 6.9 nM, 9 nM and 3430 nM.
In the same order, the values of `CCN1CCN(c2cc(NC(=O)Nc3ccc(Oc4ccnc(NC(=O)C5CC5)c4)c(F)c3)cc(C(F)(F)F)c2)CC1` [Exe. 055] are 14.5 nM, 284 nM and 420 nM.
For the compound `Cc1cc(Oc2cc(NC(=O)C3CC3)ncn2)ccc1NC(=O)Nc1cc(Cl)cc(C(F)(F)F)c1` [Exe. 075], the IC50 on KDR kinase (790-1356 AA) was 13.1 nM; in the assay on pERK in MDA-MB-231 cells (setting [1]), 420 nM; with PLC-PRF-5 cells (setting [2]), 20000 nM.
The matching figures for `O=C(Nc1cccc(Oc2cc(NC(=O)C3CC3)ncn2)c1)Nc1cccc(OC(F)(F)F)c1` [Exe. 121]: 11.5 nM, 252 nM and more than 30000 nM.
In the same order, the values of `Cc1cc(Oc2cc(NC(=O)C3CC3)ncn2)ccc1NC(=O)Nc1ccc(C)c(C(F)(F)F)c1` [Exe. 072] are 8.9 nM, 12 nM and 7000 nM.
In the same order, the values of `O=C(Nc1cncc(C(F)(F)F)c1)Nc1ccc(Oc2ccnc(NC(=O)C3CC3)c2)c(F)c1` [Exe. 169] are 14.6 nM, 43 nM and 340 nM.
On to `Cc1cc(Oc2ccnc(NC(=O)C3CC3)c2)ccc1NC(=O)Nc1ccc(F)c(C(C)(F)F)c1` [Exe. 200], for which the IC50 worked out at 10 nM against KDR kinase (790-1356 AA), 5.5 nM in the assay on pERK in MDA-MB-231 cells (setting [1]) and 3180 nM in the assay with PLC-PRF-5 cells (setting [2]).
The matching figures for `Cc1cc(NC(=O)Nc2ccc(Cl)c(C(C)(F)F)c2)ccc1Oc1cc(NC(=O)C2CC2)ncn1` [Exe. 117]: 12 nM, 27 nM and 2930 nM.
Consider `Cc1cc(NC(=O)Nc2cc(F)cc(C(C)(F)F)c2)ccc1Oc1cc(NC(=O)C2CC2)ncn1` [Exe. 115], for which the figures for the IC50 against KDR kinase (790-1356 AA), in the assay with pERK in MDA-MB-231 cells (setting [1]) and with PLC-PRF-5 cells (setting [2]) were 9.5 nM, 300 nM and 1310 nM, respectively.
`Cc1cc(NC(=O)Nc2ccc(Cl)c(OC(F)(F)F)c2)ccc1Oc1cc(NC(=O)C2CC2)ncn1` [Exe. 114]: the IC50 against KDR kinase (790-1356 AA) is 9.8 nM; in the assay on pERK in MDA-MB-231 cells (setting [1]) it was 37 nM; in the assay on PLC-PRF-5 cells (setting [2]), 4600 nM.
